This is an account of results in patent US20050020550A1, “Selective testicular 11beta-HSD inhibitors and methods of use thereof” (priority 2003, published 2005).

In data set [1] the test system is 11β-HSD1-reductase activity. As to the kind of experiment: Conversion of 3H-11-dehydrocorticosterone back to corticosterone by aortic rings. On the set-up: species or system rat. As to the method:
(§1) The effects of 11β-HSD1 and 11β-HSD2 antisense on the inter-conversion of ^3H-corticosterone and ^3H-11-dehydro-corticosterone by aortic rings was also determined. Rings (2-3 mm) obtained in a similar manner as those in the contraction studies, were incubated in 1 ml DMEM/F12 media containing 1% FBS at 37° C. under 95% O2-5% CO2 in 24-well culture plates. Rings were incubated for 24 hours with: • (i) ^3H-corticosterone (10 mmol/L)±11β-HSD2 or 11β-HSD1 antisense (3 μmol/L); control groups received nonsense oligomers. The amount of ^3H-11-dehydro-corticqsterone in the incubation medium after 24 hrs was then measured. The effects of 11β-HSD1 antisense/nonsense were measured in quadruplicate (n=6 aortic rings per well) and the effects of 11β-HSD2 antisense/nonsense in duplicate (n=8 aortic rings per well), • (ii) ^3H-11-dehydro-corticosterone (10 nmol/L)±11β-HSD1 antisense (3 μmol/L); this experiment was performed in duplicate (n=10 aortic rings per well). Control groups were incubated with the appropriate nonsense oligomer. ^3H-corticosterone in the incubation medium after 24 hrs was then measured. In this experiment, aortic rings were also analyzed for ^3H-corticosterone content. Rings from duplicate incubations (total n=20) were blotted dry, pooled and homogenized in 50% methanol using a Polytron. The homogenates were then centrifuged, extracted as below using Sep-Paks and injected onto a HPLC system for analysis.
(§2) Incubation media was collected, ran through a Sep-Pak and eluted with 3 mls of methanol, the eluate was then dried under nitrogen and reconstituted in 500:1 methanol. […] Steroids were observed by monitoring radioactivity on-line with a Packard Radiomatic Flo-One/Beta Series A-500 counter connected to a Dell Optiflex 425 S/L computer. […]
Corticosterone and phenylephrine were obtained from Sigma (St Louis, Mo.), 11-dehydrocorticosterone from Research Plus (Bayonne, N.J.) and ^3H-steroids from New England Nuclear (Boston, Mass.). Where appropriate, data were expressed as mean±SE and analyzed using ANOVA and the Student's t test with Bonferroni modification. […]

In another data set the test system is rat aortic rings. As to the kind of experiment: Contractile response of rat aortic rings to phenylephrine. Conditions: for contractile response to phenylephrine: rings incubated 24 hours with corticosterone (10 nmol/L) and antisense oligomers (3 μmol/L). As to the method: Male Sprague-Dawley (150-200 g) rats were anesthetized with pentobarbital (50 mg/kg IP), and a median sternotomy was performed followed by the rapid removal of the thoracic aorta. The adventitia was removed, but the endothelium was left intact. The aorta was cut into 2-3 mm rings and individual rings were placed into a single well of a twenty four well culture plate and incubated at 37° C. under 95% O2-5% CO2. Each well contained 1 mL of DMEM/F12 containing 1% fetal bovine serum, streptomycin (100 μg/ml), penicillin (100 units/ml) and amphotericin (0.25 μg/ml). Aortic rings were incubated for 24 hours prior to contractility measurements with the following combinations of steroids, and antisense/nonsense oligonucleotides (3 μmol/L): • Corticosterone (10 nmol/L)+11β-HSD2 antisense or 11β-HSD2 nonsense oligomer • Corticosterone (10 nmol/L)+11β-HSD1 antisense or 11β-HSD1 nonsense oligomer • In 11-dehydrocorticosterone experiments with vehicle alone • 11-dehydrocorticosterone (100 nmol/L)+11β-HSD1 Antisense or 11β-HSD1 nonsense oligomer
Antisense phosphorothioate oligonucleotides, targeted to block either 11β-HSD2 or 11β-HSD1 gene expression, were obtained from Research Genetics, Huntsville Ala. Antisense oligomers complementary to 20 bp sequences spanning the ribosome binding/translation start site were used. Oligomer sequences were: 5′-CATAACTGCCGTCCAACAGC-3′ (SEQ ID No.: 2) for 11β-HSD1 Antisense and 5′-AGCCCAGCGCTCCATGACTT-3′ (SEQ ID No. 3) for 11β-HSD2 antisense. In control experiments the corresponding sense sequence was used as the nonsense oligomer. Antisense and nonsense oligomers were added directly to each well at 20 μg/10:1 sterile H2O per well for a final concentration of 3 μmol/L.
For contraction measurements, aortic rings were suspended by tungsten wires with 1 g of tension and placed in a vessel bath containing serum free DMEM/F 12 media at 37° C. aerated with 95% O2-5% CO2, at pH 7.4. Vessels were equilibrated for 20 minutes and then tested with phenylephrine (1 nmol/L−10 μmol/L). Although phenylephrine is structurally not a catecholamine, it is considered to be a functional catecholamine as it activates […]. Due to its favorable stability characteristics, it is widely used as a catecholamine substitute in experiments of this nature. The intensity of contraction was assessed by use of a Narishige micromanipulator and model FT03 force transducer (Grass Instrument Co. West Warwick, R.I.). Measurements were recorded on computer using the Labview 4.1 Virtual Instrument System (National Instruments, Austin, Tex.).

Another data set concerns 11β-HSD enzyme activity. The experiment in a line: Conversion of 3H-corticosterone to 11-dehydrocorticosterone by aortic rings. On the set-up: species or system rat. The note with it: 24 hrs, 3H-corticosterone (10 nM) plus antisense (3 μM), compared to nonsense oligomers. As to the method: as §1, with “Rings were incubated for 24 hours with: • (i) ^3H-corticosterone (10 mmol/L)±11β-HSD2 or 11β-HSD1 antisense (3 μmol/L); control groups received nonsense oligomers.” left out, “Rings from duplicate incubations (total n=20) were blotted dry, pooled and homogenized in 50% methanol using a Polytron. The homogenates were then centrifuged, extracted as below using Sep-Paks and injected onto a HPLC system for analysis.” left out
as §2

Another data set has as its target T1, 11β-HSD1 Reductase (Rattus norvegicus, UniProt P16232).
T1 construct: an enzyme present in testicular Leydig cells; endogenous in cells; host or cells: freshly prepared rat Leydig cells
The experiment in a line: Inhibition of 11β-HSD1 reductase (Table 1). Type of data set: cell-based.

A further data set deals with T2, 11β-HSD2 Dehydrogenase (Homo sapiens, UniProt P80365).
T2 sequence (P80365 1-405): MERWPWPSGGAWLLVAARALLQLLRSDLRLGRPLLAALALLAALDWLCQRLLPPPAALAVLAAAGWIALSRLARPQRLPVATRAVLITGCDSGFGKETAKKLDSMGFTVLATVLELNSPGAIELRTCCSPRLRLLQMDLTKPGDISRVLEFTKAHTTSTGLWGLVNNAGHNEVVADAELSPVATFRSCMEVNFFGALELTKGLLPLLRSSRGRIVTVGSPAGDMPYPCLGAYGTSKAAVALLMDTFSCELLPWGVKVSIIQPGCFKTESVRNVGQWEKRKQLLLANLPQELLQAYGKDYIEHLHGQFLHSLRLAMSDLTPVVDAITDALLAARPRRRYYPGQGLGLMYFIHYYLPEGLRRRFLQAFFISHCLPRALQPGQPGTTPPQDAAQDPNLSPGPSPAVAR
The experiment in a line: Inhibition of 11β-HSD2 dehydrogenase (Table 1). Type of data set: biochemical.

Another data set deals with T3, 11β-HSD1 Dehydrogenase (Rattus norvegicus, UniProt P16232).
T3 construct: an enzyme present in testicular Leydig cells; endogenous in cells; host or cells: freshly prepared rat Leydig cells
The experiment in a line: Inhibition of 11β-HSD1 dehydrogenase (Table 1). Type of data set: cell-based.

Setting [2] is: with the 11β-HSD1-reductase inhibitor steroid.

T3 sequence (P16232 whole entry): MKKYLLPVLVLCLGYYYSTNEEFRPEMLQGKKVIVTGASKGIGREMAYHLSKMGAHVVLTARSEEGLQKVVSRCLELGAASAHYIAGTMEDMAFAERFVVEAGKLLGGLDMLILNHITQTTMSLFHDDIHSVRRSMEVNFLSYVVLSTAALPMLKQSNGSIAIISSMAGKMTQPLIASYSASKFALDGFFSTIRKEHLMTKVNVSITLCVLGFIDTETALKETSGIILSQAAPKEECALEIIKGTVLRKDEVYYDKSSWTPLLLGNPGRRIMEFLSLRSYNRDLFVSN
T1 sequence (P16232 whole entry): as above

Turning to “11β-HSD1 antisense: Antisense phosphorothioate oligonucleotide blocking 11β-HSD1 gene expression, 5′-CATAACTGCCGTCCAACAGC-3′ (antisense CATAACTGCCGTCCAACAGC; all phosphorothioate, sugars by position and methylation of C not given here; listed as Homo sapiens)”, the “production of 3H-corticosterone from 3H-11-dehydrocorticosterone” value in data set [1] (incubation medium, 24 hours, antisense compared to nonsense oligomers) was “markedly reduced”. Further, the “production of 3H-corticosterone in aortic ring tissue” value in data set [1] (pooled aortic ring tissue (n=20), antisense compared to nonsense oligomers) is recorded as “markedly lower”. Besides, the “ability of 11-dehydro-corticosterone to amplify the contractile response to phenylephrine” value in the data set on rat aortic rings (rings incubated 24 hours with 11-dehydro-corticosterone (100 nmol/L) and antisense (3 μmol/L), compared to nonsense oligomers) is reported as “attenuated”. The “contractile response to phenylephrine” value in the data set with rat aortic rings (compared to nonsense oligomers) was “significantly increased”. Moreover, the “reduction in the conversion of corticosterone to 11-dehydrocorticosterone” value with 11β-HSD enzyme activity amounted to 21%.
On to “11β-HSD2 antisense: Antisense phosphorothioate oligonucleotide blocking 11β-HSD2 gene expression, 5′-AGCCCAGCGCTCCATGACTT-3′ (antisense AGCCCAGCGCTCCATGACTT; all phosphorothioate, sugars by position and methylation of C not given here; listed as Homo sapiens)”, for which, in the data set with rat aortic rings (compared to nonsense oligomers), the “contractile response to phenylephrine” value is reported as “statistically significant increase”. In addition, the “reduction in the conversion of corticosterone to 11-dehydrocorticosterone” value in the data set on 11β-HSD enzyme activity worked out at 24%.
On to `CC(=O)[C@H]1CC[C@@H]2[C@@H]3CCC4=CC(=O)CC[C@]4(C)[C@@H]3C(=O)C[C@]12C` [11-Keto-progesterone], for which the “11β-HSD1 Reductase (inhibition)” value on 11β-HSD1 Reductase is given as “Selective Inhibitor”. For the same compound, in data set [1] (setting [2]), the “metabolism of 11-dehydro-corticosterone back to corticosterone” value is given as “decreased”. For the same compound, the “ability of 11-dehydro-corticosterone to amplify the contractile effects of phenylephrine” value in the data set with rat aortic rings (setting [2]) was “diminished”. Besides, the “11β-HSD2 Dehydrogenase (inhibition)” value at 11β-HSD2 Dehydrogenase is “Potent Inhibitor”. Moreover, the “11β-HSD1 Dehydrogenase (inhibition)” value on 11β-HSD1 Dehydrogenase is “No Inhibition”.
